Results taken from patent publication US20130150363A1, “Method of Treating Cancer Using a cMET and AXL Inhibitor and an ErbB Inhibitor” (GlaxoSmithKline, priority 2008, published 2013).

Legend:
[1] = test system: SNU-16 gastric carcinoma cells; assay: Cell growth inhibition (CellTiter-Glo), SNU-16; type: cell-based; settings: Homo sapiens, SNU-16, 72 h, 3 days
From the text: (§1) Esophageal carcinoma cell line OE33 was purchased from ECACC European Collection of Cell Cultures (UK). Breast cancer cell line JIMT-1 and gastric carcinoma cell line MKN-45 were purchased from Deutsche Sammlung von Mikroorganismen and Zellkulturen GmbH (Germany); KPL-4, a human breast cancer cell line was kindly provided by Prof. J Kurebayashi (Kawasaki Medical School, Kurashiki, Japan). […] The LICR-LON-HN5 head and neck carcinoma cell line (HN5) was a gift from the Institute of Cancer Research, Surrey, U.K. HN5C12 was developed by single-cell cloning of HN5 followed by exposure to increasing concentrations of lapatinib. […] Cell growth inhibition was determined via CellTiter-Glo cell viability assays. […] ATP levels were determined by adding Cell Titer Glo0 (Promega), incubating for 20 minutes then the luminescent signal was read on the SpectraMax M5 plate with a 0.5 second integration time. Cell growth was calculated relative to vehicle (DMSO) treated control wells. […] CI values were calculated with the interpolated IC50 values and the mutually non-exclusive equation derived by Chou and […](a)+Db/IC50(b)+(Da×Db)/(IC50(a)×IC50(b)) where IC50(a) is the IC50 of the inhibitor A; IC50(b) is the IC50 for the inhibitor B; […] […] EOHSA at each dose was calculated as the minimum difference in average % inhibition between the combination and each monotherapy, from the appropriate ANOVA contrast. […]

BT474 cells = assay: Cell apoptosis assays (Cell Death ELISA, Caspase-Glo 3/7), BT474; type: cell-based, human; settings: BT474, presence of HGF (FIG. 4)
Procedure: (§2) Cell apoptosis was measured by both a cell death ELISA method, which measures DNA fragmentation, a hallmark of apoptosis; and Caspase-Glo® 3/7 assay which detects the activity of caspase 3/7, one of the execution enzymes for apoptosis in cells.
(§3) The Cell Death ELISA^Plus kit (Roche, Mannheim, Germany) was used according to the manufacturer's instructions. Cells were seeded in 96-well plates at 10,000 per well. After 24 h, cells were dosed and grown for an additional 48 h in RPMI 1640 with 10% FBS in 5% CO2 at 37° C. Cytoplasmic fractions of control and treated cells were transferred into streptavidin-coated 96-well plates and incubated with biotinylated mouse antihistone antibody and peroxidase-conjugated mouse anti-DNA antibody at room temperature for 2 h. Absorbance was determined at 405-490 nm using a Spectra Max Gemini microplate reader (Molecular Devices, Sunnyvale, Calif.).
(§4) The Caspase-Glo® 3/7 assay (Promega) is a homogeneous luminescent assay that measures caspase-3 and -7 activities. Cells were seeded in 96-well plates at 5,000 per well. […] Caspase 3/7 activity was detected by adding luminogenic caspase-3/7 substrate, which contains the tetrapeptide sequence DEVD, in a reagent optimized for caspase activity, luciferase activity and cell lysis, according to the manufacturer's instructions.

[2] = test system: phosphorylation of HER2, AXL, AKT, ERK and cyclin D1 in BT474-J4 cells; assay: Western blot analysis, BT474-J4; settings: BT474-J4, 1 μM each, 4 h
Procedure: Cells were plated at 250,000 to 500,000 per well in six-well plates (Falcon multiwell, Becton Dickinson, Franklin Lakes, N.J.). The following day, cells were treated with compounds in the growth medium containing 10% FBS. After treatment, cells were washed with cold PBS and lysed in the culture dishes using cell lysis buffer [40 mmol/L Tris-HCl (pH 7.4), 10% glycerol, 50 mmol/L beta-glycerophosphate, 5 mmol/L EGTA, 2 mmol/L EDTA, 0.35 mmol/L vanadate, 10 mmol/L NaF, and 0.3% Triton X-100] containing protease inhibitors (Complete Protease Inhibitor Tablets, Boehringer Mannheim, Indianapolis, Ind.). […] The membrane blots were rinsed with PBS and blocked in Odyssey Blocking buffer for 1 h at RT. Blots were probed with antibodies against specific proteins in blocking buffer plus 0.1% Tween 20 and incubated for 2 h at room temperature. The membranes were washed and incubated with IRDye 680 or IRDye 800 secondary antibodies at RT for 1 h in blocking buffer plus 0.1% Tween 20. The membranes were developed with Odyssey Infrared Imaging System (LI-COR Biosciences, Lincoln, Nebr.).
Cell lysate (50 μg of total protein) or proteins immunoprecipitated with anti-phospho-Tyrosine antibody were loaded in SDS-PAGE gel. The antibody against specific protein was used in the western blot analysis.

BT474-J4 cells = assay: Cell apoptosis assays (Cell Death ELISA, Caspase-Glo 3/7), BT474-J4; type: cell-based, human; settings: BT474-J4, presence of HGF (FIG. 4, FIG. 5B)
Procedure: as §2, §3, §4

[3] = test system: HCC1954 breast carcinoma cells; assay: Cell growth inhibition (CellTiter-Glo), HCC1954; type: cell-based; settings: Homo sapiens, HCC1954, 72 h, 3 days
From the text: as §1

[4] = test system: N87 gastric carcinoma cells; assay: Cell growth inhibition (CellTiter-Glo), N87; type: cell-based; settings: Homo sapiens, 72 h, 3 days
From the text: Esophageal carcinoma cell line OE33 was purchased from ECACC European Collection of Cell Cultures (UK). Breast cancer cell line JIMT-1 and gastric carcinoma cell line MKN-45 were purchased from Deutsche Sammlung von Mikroorganismen and Zellkulturen GmbH (Germany); KPL-4, a human breast cancer cell line was kindly provided by Prof. J Kurebayashi (Kawasaki Medical School, Kurashiki, Japan). […] The LICR-LON-HN5 head and neck carcinoma cell line (HN5) was a gift from the Institute of Cancer Research, Surrey, U.K. HN5C12 was developed by single-cell cloning of HN5 followed by exposure to increasing concentrations of lapatinib. […] Cell growth inhibition was determined via CellTiter-Glo cell viability assays. […] BT474-J4 and HN5C12 were washed with PBS and plated in their culture media without lapatinib. […] ATP levels were determined by adding Cell Titer Glo0 (Promega), incubating for 20 minutes then the luminescent signal was read on the SpectraMax M5 plate with a 0.5 second integration time. Cell growth was calculated relative to vehicle (DMSO) treated control wells. […] EOHSA at each dose was calculated as the minimum difference in average % inhibition between the combination and each monotherapy, from the appropriate ANOVA contrast. […] The p-values for both synergy and antagonism were calculated using this adjustment.

IC50 ([1]; gastric_SNU16, +HGF (2 ng/mL)) [µM] | IC50 ([1]; gastric_SNU16, −HGF) [µM] | IC50 ([3]; breast_HCC1954, +HGF (2 ng/mL)) [µM] | IC50 ([3]; breast_HCC1954, −HGF) [µM] | IC50 ([4]; gastric_N87, +HGF (2 ng/mL)) [µM] | IC50 ([4]; gastric_N87, −HGF) [µM] | Compound | apoptosis induction (DNA fragmentation and caspase 3/7 activation) (BT474 cells) | phosphorylation of HER2 [2] | apoptosis induction (DNA fragmentation and caspase 3/7 activation) (BT474-J4 cells)
9.37 | 6.46 | – | – | – | – | C#Cc1cccc(Nc2ncnc3cc(OCCOC)c(OCCOC)cc23)c1 [Erlotinib, N-(3-ethynylphenyl)-6,7-bis{[2-(methyloxy)ethyl]oxy}-4-quinazolinamine] | – | – | –
– | – | 5.27 | 0.8 | 4.8 | 0.05 | CS(=O)(=O)CCNCc1ccc(-c2ccc3ncnc(Nc4ccc(OCc5cccc(F)c5)c(Cl)c4)c3c2)o1 [Lapatinib, N-(3-chloro-4-{[(3-fluorophenyl)methyl]oxy}phenyl)-6-[5-({[2-(methylsulfonyl)ethyl]amino}methyl)-2-furanyl]-4-quinazolinamine] | induces apoptosis | inhibits | only in BT474
